Assays:
[1] = Time-dependent solubility of slurries (HPLC) in aqueous hydrochloric acid (0.1 N) and phosphate buffer (pH 7.5) at 37° C.; type: physicochemical
Procedure: a) Solubility in Aqueous Hydrochloric Acid (0.1 N)
102.39 mg of darolutamide form I were slurried in 20 mL aqueous hydrochloric acid (0.1 N) at 37° C.
99.41 mg of darolutamide form II were slurried in 20 mL aqueous hydrochloric acid (0.1 N) at 37° C.
b) Solubility in Phosphate Buffer (pH 7.5)
105.02 mg of darolutamide form I were slurried in 20 mL […] at 37° C.
103.41 mg of darolutamide form II were slurried in 20 mL […] at 37° C.
Samples were taken after 5 min, 15 min and 60 min. The suspensions were filtered and subjected undiluted to HPLC. The absolute solubility was calculated by creating a linear calibration curve (see below). Results are reported in Table 4 and in FIGS. 10 and 11.
Solutions of different concentrations (Table 5) of darolutamide were prepared in acetonitrile/water (75% v/v) at 37° C. and subjected to HPLC measurement. The resulting areas were illustrated as a function of the concentrations and a linear dependency could be observed (FIG. 12).

[2] = Gravimetric moisture sorption (GMS); type: physicochemical; conditions: for phase change during the GMS experiments: 0% to approximately 90% r.h.; for water uptake from 0% to 90% RH: 25±0.1° C.
Procedure: Moisture sorption isotherms were recorded with an SPSx-1p moisture sorption analyzer (ProUmid, Ulm. The measurement cycle was started at a relative humidity (r.h.) of 25%. Relative humidity was then decreased to 5% r.h. in 5% steps, followed by a further decrease to 3% r.h. and to 0% r.h. Afterwards r.h. was increased from 0% to approximately 90% r.h. in a sorption cycle and decreased to 0% in a desorption cycle in 5% steps. Finally r.h. was increased to 25% r.h. in 5% steps.
The time per step was set to a minimum of 2 hours and a maximum of 6 hours. If an equilibrium condition with a constant mass of 0.01% within 1 hour was reached before the maximum time for all examined samples the sequential humidity step was applied before the maximum time of 6 hours. If no equilibrium was achieved the consecutive humidity step was applied after the maximum time of 6 hours. The temperature was 25±0.1° C.

[3] = Food effect / blood levels after oral administration; type: in vivo
[4] = Time-dependent solubility of slurries (HPLC) in aqueous hydrochloric acid (0.1 N) and phosphate buffer (pH 7.5) at 37° C.; type: physicochemical; conditions: phosphate buffer (pH 7.5)

SMILES	solubility (concentration in solution) ([1]; slurry time 5 min) [µg/mL]	solubility (concentration in solution) ([1]; slurry time 15 min) [µg/mL]	solubility (concentration in solution) ([1]; slurry time 60 min) [µg/mL]	phase change during the GMS experiments ([2]; 25° C.)	hygroscopicity (comparison) ([2]; GMS, 25° C.)	water uptake from 0% to 90% RH ([2]; GMS)	food effect ([3]; compared to darolutamide Form I)	blood levels when administered without food ([3]; without food)	solubility (concentration in solution) ([4]; slurry time 5 min) [µg/mL]	solubility (concentration in solution) ([4]; slurry time 15 min) [µg/mL]	solubility (concentration in solution) ([4]; slurry time 60 min) [µg/mL]
CC(O)c1cc(C(=O)N[C@@H](C)Cn2ccc(-c3ccc(C#N)c(Cl)c3)n2)n[nH]1 (mixture of isomers) [Form II, N-{(2S)-1-[3-(3-chloro-4-cyanophenyl)-1H-pyrazol-1-yl]-propan-2-yl}-5-[(1RS)-1-hydroxyethyl]-1H-pyrazole-3-carboxamide]	113	121	117	Neither form I nor form II underwent any phase change	less hygroscopic than form I	+1.3%	significantly lower food effect	still achieving therapeutically effective blood levels	89	97	93
CC(O)c1cc(C(=O)N[C@@H](C)Cn2ccc(-c3ccc(C#N)c(Cl)c3)n2)n[nH]1 (mixture of isomers) [Form I, N-{(2S)-1-[3-(3-chloro-4-cyanophenyl)-1H-pyrazol-1-yl]-propan-2-yl}-5-[(1RS)-1-hydroxyethyl]-1H-pyrazole-3-carboxamide]	43	41	38	Neither form I nor form II underwent any phase change	–	+1.7%	–	–	43	40	42

From patent publication US20210087175A1, “Crystalline Form II of Darolutamide” (Sandoz AG, priority 2018, published 2021)
